Reference: PMC10704437, “Sterol-activated amyloid beta fibril formation” (The Journal of Biological Chemistry, 2023)
“And” between values parts separate entries of the source, which are not always exact repeats. Equal entries are not always repeated.

Columns and labels:
[1] = molecular target: T1, Aβ42 (Homo sapiens, UniProt P05067); assay: Aβ42 fibril formation monitored by ThT fluorescence, NEF model fitting; type: biochemical; conditions: for Nucleation rate constant, NEF model: NEF fit of fibril formation progress curves; for Nucleation rate constant, NEF model / Elongation rate constant, forward / Elongation rate constant, reverse / Fragmentation rate constant: Aβ42 1.0 μM, ligand at saturation; for Elongation rate constant, forward / Elongation rate constant, reverse / Fragmentation rate constant: NEF fit; for increase of nucleation rate constant relative to the unliganded peptide: from NEF nucleation rate constants
T1 construct: Small red spheres mark the Aβ42 peptide C-terminal residue, A42; purchased Sigma-Aldrich Corp
Excerpt: Reactions were initiated by the addition of ligand (at saturation) or buffer (control) to a fresh solution of Aβ42 and ThT (see Fig. 3 Legend). Such progress curves are often fit using a generalized sigmoidal function and compared on the basis of lag-time length and elongation-phase slope. Here, progress curves are fit numerically to the Nucleation-Elongation-Fragmentation (NEF) model ([51], [52]), using Copasi ([53]). Numerical modeling allows one to assess whether a particular mechanism adequately predicts experimental behavior and provides rate constants for the steps of the mechanism that can be compared across peptide•ligand combinations to identify where and to what extent ligands induce change.
Figure 3 Formation of CH•, CS•, and unliganded Aβ42fibrils.A, fibril formation. Fibril formation was monitored via the fluorescence increase (λex = 450 nm, λem = 482 nm) associated with the binding of ThT, which binds Aβ oligomers ≥5-mers. […] C. Progress curves were performed in triplicate, averaged, and fit numerically using the NEF polymerization model (see Results and discussion).
The NEF model assumes a slow, energetically unfavorable event generates a polymerization nucleus that rapidly adds monomers (at the elongation rate) to form oligomers. The reaction accelerates in a geometric fashion as oligomer fragmentation produces new nuclei. The tenets of the model are embodied in Equations (1), (2), (3), which form the basis of the Copasi model ([53]).(1) 2m⇆knucrevknucforn (2) m+n⇆kelrevkelforo+n (3) o→kfragn where m is monomer concentration, n is the concentration of surfaces capable of adding monomer, and o is the concentration of peptides that are in the interior of the polymer and thus cannot add monomers. knuc, kel, and kfrag are the nucleation, elongation, and fragmentation rate constants.
Fibril formation was monitored via the binding-induced change in ThT fluorescence (λex = 450 nm, λem = 482 nm) ([76]). […] C. Reagents (peptide, CH, CS, and ThT) were prepared immediately prior to use. CH and CS were solubilized in neat DMSO. Progress curves were determined in triplicate, and data were fit using the Nucleation-Fragmentation-Elongation (NEF) model (see Results and discussion).

[2] = molecular target: T1, Aβ42; assay: Aβ42 nucleation rate versus [Aβ42]^2 (ThT, early lag phase, linear fit); type: biochemical; conditions: linear least-squares fit of Rate-versus-[Aβ42]^2; free ligand 17 × Kd
Experimental: Reaction 1 of the NEF scheme assumes nucleation is second order in Aβ42 monomer concentration. The reaction order was determined for ligand-bound and free forms of Aβ42 by plotting nucleation rates versus [Aβ42]^n, where n, the reaction order, is 1, 2, or 3—such plots become linear only when n equals the reaction order ([54]). Nucleus formation was monitored via ThT fluorescence in the region of the progress curve where nucleation is rate limiting—the very early stage of the lag phase. Rates were obtained by linear least-squares fitting of progress curves. In all cases, fits were initiated at t0 and deviation from linearity was within experimental error (i.e., χ^2 > 0.95). […] The nucleation rate constants are given by the slopes of the plots (obtained by linear least-squares fitting) and are within the error of those predicted by NEF fitting, see Table 2.
Figure 4 Nucleation reaction order. Reactions were monitored via binding-induced changes in ThT fluorescence (λex = 450 nm, λem = 482 nm). All reactions were performed under the following conditions: ThT (30 μM), DMSO (0.5 % v/v), and K2PO4 (50 mM), pH 7.4, 25 °C ± 2 deg. C. […] A, unliganded Aβ42 nucleation. Titrant concentrations: Aβ42 (1.0, 2.0, 3.0, or 4.0 μM). B, CH•Aβ42 nucleation. […]
The formation of fibril nuclei was monitored via the Aβ-binding induced change in ThT fluorescence (λex = 450 nm, λem = 482 nm, ([42])). […]

[3] = set-up: method as in PMID 4525165; conditions: reported in 1973; cited from earlier work
[4] = molecular target: T1, Aβ42; assay: Aβ42 fibril formation versus CS percentage (ThT); type: biochemical; conditions: [CS]+[CH] 20 μM, Aβ42 1.0 μM
Experimental: To experimentally assess the potential impact of CS on fibril formation in vivo, fibril synthesis was monitored over a series of CS/CH ratios that span the physiological range.
Figure 8 Aβ42fibril formation versus CS percentage. Fibril formation was detected via binding-induced changes in ThT fluorescence (λex = 450 nm, λem = 482 nm). Reaction conditions: Aβ42 (1.0 μM), CS percent (as indicated), [CS] + [CH] (20 μM), ThT (30 μM), DMSO (0.5 % v/v), K2PO4 (50 mM), pH 7.4, 25 °C ± 2 deg. C. Progress curves were performed in triplicate and averaged data are shown. Lines passing through the data represent the behavior predicted by the NEF model using the Table 2 rate constants.

T1 sequence (P05067 672-713 limits assumed): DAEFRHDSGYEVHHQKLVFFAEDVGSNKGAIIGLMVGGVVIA

| Compound | Nucleation rate constant, NEF model [1] | Elongation rate constant, forward [1] | Elongation rate constant, reverse [1] | Fragmentation rate constant [1] | increase of nucleation rate constant relative to the unliganded peptide [1] | Nucleation rate constant, linear model [2] | critical micelle concentration (CMC) [3] [nM] | CS/CH nucleation rate constant ratio, experimental ([1]; CS•Aβ42 versus CH•Aβ42, calculated using Table 2 nucleation rate constants) | fibril formation lag-time ([4]; 0.1% CS) | fibril formation lag-time ([4]; 1% CS) | fibril formation lag-time ([4]; 10% CS) |
| --- | --- | --- | --- | --- | --- | --- | --- | --- | --- | --- | --- |
| CC(C)CCC[C@@H](C)[C@H]1CC[C@H]2[C@@H]3CC=C4C[C@@H](O)CC[C@]4(C)[C@H]3CC[C@]12C [CH, cholesterol] | 6.9 (0.2) × 10^−14 nM^−1 s^−1 | 830 (20) μM^−1 s^−1 | 98 (1) s^−1 | 5.6 (0.3) × 10^−11 s^−1 | ~49 fold | 7.3 (0.1) × 10^−14 nM^−1 s^−1 | 25 to 40 |  |  |  |  |
| CC(C)CCC[C@@H](C)[C@H]1CC[C@H]2[C@@H]3CC=C4C[C@@H](OS(=O)(=O)O)CC[C@]4(C)[C@H]3CC[C@]12C [CS, cholesterol 3-sulfate] | 1.8 (0.3) × 10^−11 nM^−1 s^−1 | 860 (60) μM^−1 s^−1 | 85 (1) s^−1 | 4.3 (0.7) × 10^−11 s^−1 | ~13,000 fold | 1.5 (0.1) × 10^−11 nM^−1 s^−1 |  | 261 fold and 260 fold | shortens by several hours | nearly halved | approaches that of pure CS |
